Laboratory results from patent publication US5183818A, “Arylalkylether and arylalkylthioether inhibitors of lipoxygenase enzyme activity” (Abbott Laboratories, priority 1991, dated 1993).

Key:
[1] = target: T1, 5-Lipoxygenase from RBL-1 20,000 × g Supernatant (Rattus norvegicus, UniProt P12527); assay: 5-lipoxygenase inhibition in 20,000 xg supernatant of homogenized RBL-1 cells (radiolabeled arachidonic acid); assay type: biochemical; details: in vitro, incubations in triplicate, read-out: IC50 × 10^6 Molar
T1 construct: 20,000 xg supernatant from 1.5 million homogenized RBL-1 cells; endogenous in cells; host or cells: RBL-1 cells, 20,000 xg supernatant of homogenate
T1 sequence (P12527 1-673): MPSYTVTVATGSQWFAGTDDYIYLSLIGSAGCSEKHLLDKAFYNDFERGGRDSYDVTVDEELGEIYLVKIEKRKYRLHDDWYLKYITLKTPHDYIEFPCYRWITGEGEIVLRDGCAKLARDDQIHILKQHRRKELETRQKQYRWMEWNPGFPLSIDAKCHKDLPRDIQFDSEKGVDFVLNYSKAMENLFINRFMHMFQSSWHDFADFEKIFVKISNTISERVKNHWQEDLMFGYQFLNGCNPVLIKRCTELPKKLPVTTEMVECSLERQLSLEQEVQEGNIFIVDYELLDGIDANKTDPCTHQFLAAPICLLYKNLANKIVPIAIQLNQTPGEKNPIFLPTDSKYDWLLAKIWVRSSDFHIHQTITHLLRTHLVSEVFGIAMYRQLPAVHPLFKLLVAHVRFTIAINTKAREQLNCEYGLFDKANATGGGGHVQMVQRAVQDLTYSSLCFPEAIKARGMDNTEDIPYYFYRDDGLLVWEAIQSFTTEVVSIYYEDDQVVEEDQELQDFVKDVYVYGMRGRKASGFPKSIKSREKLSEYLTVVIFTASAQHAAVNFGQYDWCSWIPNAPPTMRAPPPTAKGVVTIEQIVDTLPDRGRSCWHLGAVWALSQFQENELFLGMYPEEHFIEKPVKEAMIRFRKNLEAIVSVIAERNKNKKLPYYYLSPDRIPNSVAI
Procedure: Assays to determine 5-lipoxygenase inhibitory activity were performed in […] incubations containing the 20,000 xg supernatant from 1.5 million homogenized RBL-1 cells and various concentrations of the test compound. Reactions were initiated by addition of radiolabeled arachidonic acid and terminated by acidification and ether extraction. Reaction products were separated from nonconverted substrate by thin layer chromatography and measured by liquid scintillation spectroscopy. All incubations are performed in triplicate. Inhibition of 5-lipoxygenase activity was calculated as the ratio of the amount of product formed in the presence and absence of inhibitor. IC50 values (concentration of compound producing 50% enzyme inhibition) were calculated by linear regression analysis of percentage inhibition versus log inhibitor concentration plots. (Dyer, R. D.; Haviv, F.; Hanel, A. M.; Bornemier, D. A.; Carter, G. W. Fed. Proc., Fed. Am. Soc. Exp. Biol. 1984, 43, 1462A).

Leukotriene Biosynthesis = assay: Inhibition of leukotriene biosynthesis in vivo, rat peritoneal anaphylaxis model; details: 200 μmol/kg oral (gavage) one hour prior to antigen challenge, peritoneal fluids 15 minutes after challenge
Procedure: Inhibition of the biosynthesis of leukotrienes in vivo after oral administration of compound was determined using a rat peritoneal anaphylaxis model in a similar manner as that described by Young and coworkers (Young, P. R.; Dyer, R. D.; Carter, G. W. Carter, G. W. Fed. Proc., Fed. Am. Soc. Exp. Biol. 1985, 44, 1185). In this model rats were injected intraperitoneally (ip) with rabbit antibody to bovine serum albumin (BSA) and three hours later injected ip with BSA to induce an antigen antibody response. Rats were sacrificed 15 minutes after this challenge and the peritoneal fluids were collected and analyzed for leukotriene levels. Test compounds were administered by gavage one hour prior to the antigen challenge. Percent inhibition values were determined by comparing the treatment group to the mean of the control group, and the results are presented in Table 2 for representative compounds of the present invention.

Structure (SMILES)	IC50 [1]	Percent Inhibition of Leukotrienes at 200 μmol/kg (Oral Dose) (Leukotriene Biosynthesis)
Cc1ccc(COCCN(O)C(N)=O)o1 [Example 6, N-Hydroxy-N-[2-(5-methylfur-2-ylmethoxy)ethyl] urea]	7.3 µM	
Cc1ccc(C(C)OCCN(O)C(N)=O)o1 (stereo not shown) [Example 4, N-Hydroxy-N-[2-(1-[1-(5-methylfur-2-yl)]ethoxy)ethyl] urea]	6.3 µM	
Cc1ccc(C(C)OCC(C)N(O)C(N)=O)o1 (stereo not shown) [Example 7, N-Hydroxy-N-[2-(1-[1-(5-methylfur-2-yl)]ethoxy)propyl] urea]	6.6 µM	
CNC(=O)N(O)C(C)CSCc1ccc(CN(C)C)o1 (stereo not shown) [Example 18, N-Hydroxy-N-[2-(1-(5-N,N-dimethylaminomethyl)fur-2-ylmethylthio)-propyl]-N'-methyl urea]	27.6 µM	
Cc1cc(COCCN(O)C(N)=O)c(C)o1 [Example 9, N-Hydroxy-N-[2-(1-(2,5-dimethylfur-3yl)methoxy)ethyl] urea]	6.9 µM	
CC(OCC(C)N(O)C(N)=O)c1ccco1 (stereo not shown) [Example 12, N-Hydroxy-N-[2-(1-[1-(fur-2-yl)ethoxy)]propyl] urea]	7.3 µM	
CC(COCc1ccco1)N(O)C(N)=O (stereo not shown) [Example 3]	12 µM	77%
CC(COCc1ccoc1)N(O)C(N)=O (stereo not shown) [Example 11]	9.3 µM	78%
CC(COCc1ccsc1)N(O)C(N)=O (stereo not shown) [Example 21]	8.4 µM	
CC(CSc1ccccn1)N(O)C(N)=O (stereo not shown) [Example 2, N-hydroxy-N-[2-(1-(2-pyridyl)thio)propyl] urea]	9.7 µM	
Cc1occc1COCC(C)N(O)C(N)=O (stereo not shown) [Example 10]	6 µM	75%

Molecules with a lower IC50 [1], results first:

IC50 [1]	Structure (SMILES)	Percent Inhibition of Leukotrienes at 200 μmol/kg (Oral Dose) (Leukotriene Biosynthesis)
5.7 µM	Cc1cc(COCC(C)N(O)C(N)=O)c(C)o1 (stereo not shown) [Example 8]	
5.5 µM	CC(CSCc1ccco1)N(O)C(N)=O (stereo not shown) [Example 1]	71%
4.6 µM	Cc1ccc(COCC(C)N(O)C(N)=O)o1 (stereo not shown) [Example 5]	
4.5 µM	CC(COCc1cccs1)N(O)C(N)=O (stereo not shown) [Example 20]	
4.1 µM	NC(=O)N(O)CCOCc1cccs1 [Example 19, N-Hydroxy-N-[2-(thien-2-ylmethoxy)ethyl] urea]	100%
3 µM	Cc1ccc(COCCN(O)C(N)=O)s1 [Example 14, N-Hydroxy-N-[2-(1-(5-methylthien-2-yl)methoxy)ethyl] urea]	92%
1.9 µM	Cc1ccc(COCC(C)N(O)C(N)=O)s1 (stereo not shown) [Example 13]	
0.67 µM	NC(=O)N(O)CCOCc1cc2ccccc2s1 [Example 16, N-Hydroxy-N-[2-(1-(benzo[b]thien-2-yl)methoxy)ethyl] urea]	
0.46 µM	CC(COCc1cc2ccccc2s1)N(O)C(N)=O (stereo not shown) [Example 17]	89%
0.2 µM	CC(OCCN(O)C(N)=O)c1cc2ccccc2s1 (stereo not shown) [Example 15, N-Hydroxy-N-[2-(1-[1-(benzo[b]thien-2-yl)]ethoxy)ethyl) urea]	
